Assay [1] deals with pseudorabies viral diarrhea. It counts as in vivo, pigs.
For assay [2], the system named is porcine epidemic diarrhea. As to the kind of experiment: Treatment of porcine epidemic diarrhea of newborn suckling piglets (piglets and lactating sows treated). The conditions noted are these: diseased newborn suckling piglets; taurine 100 g per sow per day, 0.2 g per piglet per day. It counts as in vivo, pigs. How it is done:
Treatment of the porcine epidemic diarrhea on newborn piglets with taurine was implemented by orally administering a taurine solution to diseased suckling piglets and administering taurine to lactating sows, that is, simultaneous treatment of both the suckling piglets and the lactating sows.
the administration by drenching/mixed-feeding was carried out on the day when the disease occurred in the suckling piglets, and a non-interrupted administration lasted for 3-10 days. Lactating sows: non-interrupted oral administration lasted for 5-10 days.
the administration by drenching or mixed-feeding was carried out on the day when the disease occurred in the suckling piglets. The administration by drenching: 2% taurine solution at a dosage of 1-5 mL per time and it was taken 2-6 times per day. The administration by mixed-feeding: 1-20 g/L of taurine solution was drunk freely. Lactating sows: each sow was administered with 5-500 g of taurine per day and the administration was in a single dose or in divided doses.
40 litters of diseased newborn suckling piglets and sows thereof were selected and randomly divided into two groups equivalently. Control group: conventional supportive therapy (fluid infusion+antibiotic therapy+atropine sulfate); experimental group: treatment with taurine.
II. […]

Assay [3] deals with porcine epidemic diarrhea. As to the kind of experiment: Prevention of porcine epidemic diarrhea of weaned piglets, care pigs and finishing pigs. Particulars: taurine 200 mg per kilogram of body weight per day. It counts as in vivo. How it is done: Prevention of the porcine epidemic diarrhea on the weaned piglets, the care pigs and the finishing pigs with taurine was implemented by orally administering taurine to a swine herd, wherein the administration may be carried out by means of feeding in water or mixed feeding.
a preventative administration was carried out during an epidemic period of the disease, or in autumn, winter and spring when the temperature was low and changed greatly, that is, in the season when the porcine epidemic diarrhea frequently occurs. Generally, the administration can be carried out for a long-term. In consideration of the use-cost, the drug administration time is preferably 3-30 days, and more preferably, 7-14 days. The effect is subject to an obvious time-effect relationship.
0.005-2% by weight of taurine was added in daily-drinking water for the pigs to drink freely; or taurine accounting for 0.01-5% by weight of the feed was added thereto, which is equivalent to a dosage of 50-10000 mg per kilogram of body weight per day of taurine, and the administration was in a single dose or in divided doses. The effect is subject to an obvious quantity-effect relationship.
120 healthy weaned piglets, 120 healthy care pigs and 120 healthy finishing pigs were selected and randomly divided into two groups equivalently. Control group: conventional feeding; experimental group: conventional feeding+taurine (the dosage of taurine was 200 mg per kilogram of body weight per day).
I. The pharmaceutical composition according to Embodiment 6 was used for the prevention of porcine epidemic diarrhea of the newborn piglets, weaned piglets, care pigs and finishing pigs. Particularly, a mode of the administration for the newborn piglets was the same as the method in Embodiment 1, i.e. each pregnant sow was administered with 50 g of the pharmaceutical composition in Embodiment 6 per day, and the administration was in a single dose or in divided doses. […]

Assay [4] relates to porcine transmissible gastroenteritis. It counts as in vivo, pigs.
The subject of assay [5] is porcine epidemic diarrhea. As to the kind of experiment: Treatment of porcine epidemic diarrhea of weaned piglets, care pigs and finishing pigs. It is filed as in vivo. Particulars: taurine 300 mg per kilogram of body weight per day. As for the experimental part:
Treatment of the porcine epidemic diarrhea on the weaned piglets, the care pigs and the finishing pigs with taurine was implemented by orally administering taurine to the pigs, wherein the administration may be carried out by means of feeding in water or mixed feeding.
the administration was carried out from the day of occurrence of the disease, and in consideration of the use-cost, the drug administration time is preferably 3-30 days, and more preferably 7-14 days. The effect is subject to an obvious time-effect relationship.
0.1-2% by weight of taurine was added in the daily-drinking water for the pigs to drink freely; or taurine accounting for 0.2-5% of the feed was added thereto, which is equivalent to a dosage of 100-10000 mg per kilogram of body weight per day of taurine, and the administration was in a single dose or in divided doses. The effect is subject to an obvious quantity-effect relationship.
60 diseased weaned piglets, 60 diseased care pigs and 60 diseased finishing pigs were selected, and were randomly divided into two groups equivalently. Control group: conventional supportive therapy (fluid infusion+antibiotic therapy+atropine sulfate); experimental group: treatment with taurine (the dosage of taurine was 300 mg per kilogram of body weight per day).
II. The pharmaceutical composition according to Embodiment 6 was used for the treatment of porcine epidemic diarrhea of the newborn piglets, weaned piglets, care pigs and finishing pigs. A mode of the administration for the newborn piglets was the same as the method in Embodiment 2, i.e. the administration by drenching and/or mixed-feeding was carried out on the day when the disease occurred in the suckling piglets. The administration by drenching: a solution with a mass concentration of 5% was prepared from the pharmaceutical composition in Embodiment 6 with a dosage of 2-4 mL per time and it was taken 2-6 times per day. The administration by mixed-feeding: 4 g/L of the solution was drunk freely. […]

The test system of assay [6] is rotavirus diarrhea. Put plainly: Treatment of rotavirus diarrhea. It is filed as in vivo, pigs.
Assay [7] concerns PEDV. Particulars: Kim et al., Virus Research (2013); cited from earlier work.
In assay [8] the test system is epidemic diarrhea. Particulars: diseased piglets, oral, a certain dose; cited from earlier work.
[9] abbreviates: care pigs, taurine dosage as in Embodiment 4 (300 mg per kilogram of body weight per day).
The mark [10] stands for this setting: newborn piglets, taurine dosage as in Embodiment 2 (100 g per sow per day, 0.2 g per piglet per day).
The mark [11] stands for this setting: weaned piglets, taurine dosage as in Embodiment 4 (300 mg per kilogram of body weight per day).

The values below come from patent US20180008563A1 (priority 2015, published 2018).

Where two headings read alike, the source gives them in different places.

As for `NCCS(=O)(=O)O` [taurine, β-aminoethanesulfonic acid], the Prognosis result in assay [1] (setting [9]) is “General”; in assay [2] it was “Good”; in assay [3] (care pigs) it was “Excellent”; in assay [3] (finishing pigs) it was “Excellent”; in assay [3] (weaned piglets) it was “Excellent”; in assay [4] (setting [9]) it was “Good”. Also, the Prognosis entry in assay [4] (finishing pigs, taurine dosage as in Embodiment 4 (300 mg per kilogram of body weight per day)) is “Good”; in assay [4] (setting [10]), “Good”; in assay [4] (setting [11]), “Good”; in assay [5] (diseased care pigs), “Good”; in assay [5] (diseased finishing pigs), “Good”; in assay [5] (diseased weaned piglets) it was “Good”. Further, the Prognosis result in assay [6] (setting [9]), in assay [6] (setting [10]) and in assay [6] (setting [11]) was “Good” in each case. In assay [1] (summary in text of Table 5), the “treatment effect on the pseudorabies viral diarrhea” value is recorded as “no treatment effect”.
Consider `NC(=O)c1ncn([C@@H]2O[C@H](CO)[C@@H](O)[C@H]2O)n1` [Ribavirin], for which, in assay [7], the “inhibition of replication of PEDV” value is recorded as “capable of inhibiting replication of PEDV”.
povidone iodine: in assay [8], the “improvement of survival rate” value is listed as 5-10% and the “prognosis of survived suckling piglets” value is “unfavourable prognosis”.
